In PubChem BioAssay AID212 (DTP/NCI, 2004):
“And” between values parts separate entries of the source, which are not always exact repeats. Equal values may be shown once. Records with an inconclusive call do not appear.

Test system: BDF1 mice, colon carcinoma 38 sc, T/C %
Test: NCI In Vivo Anticancer Drug Screen. Data for tumor model Colon Carcinoma 38 (subcutaneous) in B6D2F1 (BDF1) mice
Details: endpoint: median tumor weight (est.), schedule: Q07DX002 (ip), higher = larger tumour
Procedure, shortened: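 T/C readout: treated group (T) measurement over vehicle control group (C) measurement. Endpoint is survival or tumor size in mice bearing a transplanted tumor.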

[1] = dose: 25.0 mg/kg/injection, vehicle: saline with Tween-80
[2] = dose: 50.0 mg/kg/injection, vehicle: saline with Tween-80
[3] = dose: 200.0 mg/kg/injection, vehicle: saline with Tween-80
[4] = dose: 400.0 mg/kg/injection, vehicle: saline with Tween-80
[5] = dose: 6.25 mg/kg/injection, vehicle: saline
[6] = dose: 12.5 mg/kg/injection, vehicle: saline
[7] = dose: 25.0 mg/kg/injection, vehicle: saline
[8] = dose: 50.0 mg/kg/injection, vehicle: saline

## COc1cccc(C2NC(=O)c3c(n[nH]c3N)S2)c1O (configuration not stated)
[1]
  T/C: 102 % of control
[2]
  T/C: 106 % of control
dose: 100.0 mg/kg/injection, vehicle: saline with Tween-80
  T/C: 90 % of control
[3]
  T/C: 94 % of control
[4]
  T/C: 59 % of control

## CN(N=O)C(N)=O
dose: 3.12 mg/kg/injection, vehicle: saline
  T/C: 95 % of control
dose: 6.0 mg/kg/injection, vehicle: saline
  T/C: 93 % of control
[5]
  T/C: 99 % of control
dose: 6.25 mg/kg/injection, vehicle: suspension in saline
  T/C: 108 % of control
dose: 12.0 mg/kg/injection, vehicle: saline
  T/C: 112 % of control
[6]
  T/C: 78 % of control
dose: 12.5 mg/kg/injection, vehicle: suspension in saline
  T/C: 76 % of control
[7]
  T/C: 43 % of control and 62 % of control
dose: 25.0 mg/kg/injection, vehicle: suspension in saline
  T/C: 55 % of control
[8]
  T/C: 37 % of control
dose: 50.0 mg/kg/injection, vehicle: suspension in saline
  T/C: 82 % of control
dose: 100.0 mg/kg/injection, vehicle: suspension in saline
  T/C: 84 % of control

## NS(=O)(=O)OCCCCCCCOS(N)(=O)=O
[1]
  T/C: 124 % of control
[3]
  T/C: 9 % of control and 16 % of control

## CCC[CH2][Sn]1([CH2]CCC)[O]C2C(CO)OC(n3ccc(N)nc3=O)C2[O]1 (configuration not stated)
dose: 1.56 mg/kg/injection, vehicle: Klucel (hydroxypropylcellulose) (HPC)
  T/C: 61 % of control and 72 % of control
dose: 25.0 mg/kg/injection, vehicle: Klucel (hydroxypropylcellulose) (HPC)
  T/C: 91 % of control

## COc1cccc2c1C(CO)N1C(C#N)C3CC(C(=O)O)C(C1C2)N3C (configuration not stated)
[5]
  T/C: 71 % of control
[6]
  T/C: 45 % of control
[7]
  T/C: 108 % of control
[8]
  T/C: 80 % of control
dose: 100.0 mg/kg/injection, vehicle: saline
  T/C: 66 % of control

## O=NN(CCCl)C(=O)NC1OC(CO)C(O)C(O)C1O (configuration not stated)
dose: 2.5 mg/kg/injection, vehicle: saline
  T/C: 114 % of control and 96 % of control
dose: 8.0 mg/kg/injection, vehicle: saline
  T/C: 88 % of control and 92 % of control
dose: 16.0 mg/kg/injection, vehicle: saline
  T/C: 34 % of control and 58 % of control

## O=C(O)c1c2c(nc3ccccc13)Cc1ccccc1-2
dose: 12.5 mg/kg/injection, vehicle: water
  T/C: 121 % of control and 100 % of control
dose: 100.0 mg/kg/injection, vehicle: water
  T/C: 99 % of control
dose: 200.0 mg/kg/injection, vehicle: water
  T/C: 62 % of control

## CC(=O)OC1(C)CC(C)C(=O)C(C(O)CC2CC(=O)NC(=O)C2)C1 (configuration not stated)
dose: 47.0 micrograms/kg/injection, vehicle: saline
  T/C: 106 % of control
dose: 94.0 micrograms/kg/injection, vehicle: saline
  T/C: 123 % of control
dose: 188.0 micrograms/kg/injection, vehicle: saline
  T/C: 116 % of control
dose: 375.0 micrograms/kg/injection, vehicle: saline
  T/C: 117 % of control
dose: 750.0 micrograms/kg/injection, vehicle: saline
  T/C: 101 % of control

## C/C(=N\NC(N)=O)c1cccc(/C(C)=N/NC(N)=O)n1
dose: 12.5 mg/kg/injection, vehicle: saline with Tween-80
  T/C: 87 % of control and 94 % of control
[1]
  T/C: 66 % of control and 71 % of control
[2]
  T/C: 73 % of control and 96 % of control
[3]
  T/C: 96 % of control
[4]
  T/C: 57 % of control
